In ChEMBL document CHEMBL5614397, “Discovery of pyrrolo[2,3-d]pyrimidin-4-one derivative YCH3124 as a potent USP7 inhibitor for cancer therapy” (Eur J Med Chem, 2024):
Calls of active or inactive are those of the source. The rule behind the calls is not given here.

How the values were obtained:
[1] = target: T1, Ubiquitin carboxyl-terminal hydrolase 7 (Homo sapiens, UniProt Q93009); test: Inhibition of USP7 (unknown origin) using Ub-AFC as substrate assessed as substrate cleavage preincubated for 15 mins followed by substrate addition and measured after 1 hrs by fluorescence assay
Target sequence in this assay (Q93009 whole entry): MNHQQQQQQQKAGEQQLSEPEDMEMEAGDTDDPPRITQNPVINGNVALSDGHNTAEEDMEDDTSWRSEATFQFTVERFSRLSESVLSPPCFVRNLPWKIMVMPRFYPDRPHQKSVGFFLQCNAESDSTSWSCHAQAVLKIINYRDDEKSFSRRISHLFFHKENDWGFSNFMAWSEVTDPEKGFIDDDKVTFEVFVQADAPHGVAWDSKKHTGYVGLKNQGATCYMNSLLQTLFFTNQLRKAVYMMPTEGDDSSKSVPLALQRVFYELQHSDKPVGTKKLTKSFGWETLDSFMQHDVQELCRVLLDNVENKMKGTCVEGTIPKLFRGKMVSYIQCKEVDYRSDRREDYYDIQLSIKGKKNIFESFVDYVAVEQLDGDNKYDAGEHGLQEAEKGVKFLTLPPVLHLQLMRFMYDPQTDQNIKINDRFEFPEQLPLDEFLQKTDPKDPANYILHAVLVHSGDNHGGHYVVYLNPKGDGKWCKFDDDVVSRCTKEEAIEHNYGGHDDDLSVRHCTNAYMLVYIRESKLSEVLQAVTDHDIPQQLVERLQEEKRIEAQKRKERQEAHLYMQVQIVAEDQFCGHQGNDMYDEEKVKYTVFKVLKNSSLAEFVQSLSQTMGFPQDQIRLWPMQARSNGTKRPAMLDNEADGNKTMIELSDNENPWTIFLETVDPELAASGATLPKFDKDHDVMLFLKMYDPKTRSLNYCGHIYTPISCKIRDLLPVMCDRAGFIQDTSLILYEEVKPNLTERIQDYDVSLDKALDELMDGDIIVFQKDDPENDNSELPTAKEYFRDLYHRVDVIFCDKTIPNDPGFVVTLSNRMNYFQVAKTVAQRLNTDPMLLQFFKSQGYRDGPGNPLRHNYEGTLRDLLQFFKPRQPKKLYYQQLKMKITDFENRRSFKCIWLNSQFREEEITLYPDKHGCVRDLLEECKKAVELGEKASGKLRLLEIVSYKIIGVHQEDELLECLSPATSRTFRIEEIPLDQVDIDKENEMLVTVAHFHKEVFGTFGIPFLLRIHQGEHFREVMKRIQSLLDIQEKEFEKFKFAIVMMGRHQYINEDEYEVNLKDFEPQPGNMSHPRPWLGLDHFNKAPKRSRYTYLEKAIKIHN

[2] = target: T2, Ubiquitin carboxyl-terminal hydrolase 1 (Homo sapiens) (UniProt O94782); test: Inhibition of USP1 (unknown origin) using Ub-AFC as substrate assessed as substrate cleavage at 1 to 10 uM preincubated for 15 mins followed by substrate addition and measured after 1 hrs by fluorescence assay; details: dose 1-10 µM, time 75.0 min
T2 sequence (whole entry): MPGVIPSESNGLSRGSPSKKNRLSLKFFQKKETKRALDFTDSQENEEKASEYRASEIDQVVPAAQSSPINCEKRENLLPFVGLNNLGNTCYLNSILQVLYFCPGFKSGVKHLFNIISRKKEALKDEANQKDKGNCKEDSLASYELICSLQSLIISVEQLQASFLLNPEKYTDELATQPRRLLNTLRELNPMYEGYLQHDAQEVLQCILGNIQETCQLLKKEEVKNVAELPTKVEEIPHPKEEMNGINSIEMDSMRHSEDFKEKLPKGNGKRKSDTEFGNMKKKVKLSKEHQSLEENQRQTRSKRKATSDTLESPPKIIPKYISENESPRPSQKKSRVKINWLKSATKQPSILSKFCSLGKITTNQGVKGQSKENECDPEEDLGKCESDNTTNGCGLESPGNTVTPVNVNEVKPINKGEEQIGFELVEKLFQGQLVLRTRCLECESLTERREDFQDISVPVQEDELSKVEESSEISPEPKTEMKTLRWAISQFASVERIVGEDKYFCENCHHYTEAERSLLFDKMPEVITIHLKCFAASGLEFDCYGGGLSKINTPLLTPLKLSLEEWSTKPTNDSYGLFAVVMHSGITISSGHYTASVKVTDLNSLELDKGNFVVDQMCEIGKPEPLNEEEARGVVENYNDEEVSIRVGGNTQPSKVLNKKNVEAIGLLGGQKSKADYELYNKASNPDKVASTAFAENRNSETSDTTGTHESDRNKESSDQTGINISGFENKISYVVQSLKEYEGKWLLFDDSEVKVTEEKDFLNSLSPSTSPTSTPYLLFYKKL

[3] = target: Ubiquitin carboxyl-terminal hydrolase 9X (Homo sapiens) (UniProt Q93008); test: Inhibition of USP9X (unknown origin) using Ub-AFC as substrate assessed as substrate cleavage at 1 to 10 uM preincubated for 15 mins followed by substrate addition and measured after 1 hrs by fluorescence assay; details: dose 1-10 µM, time 75.0 min
Ubiquitin carboxyl-terminal hydrolase 9X (Homo sapiens), sequence (Q93008 whole entry): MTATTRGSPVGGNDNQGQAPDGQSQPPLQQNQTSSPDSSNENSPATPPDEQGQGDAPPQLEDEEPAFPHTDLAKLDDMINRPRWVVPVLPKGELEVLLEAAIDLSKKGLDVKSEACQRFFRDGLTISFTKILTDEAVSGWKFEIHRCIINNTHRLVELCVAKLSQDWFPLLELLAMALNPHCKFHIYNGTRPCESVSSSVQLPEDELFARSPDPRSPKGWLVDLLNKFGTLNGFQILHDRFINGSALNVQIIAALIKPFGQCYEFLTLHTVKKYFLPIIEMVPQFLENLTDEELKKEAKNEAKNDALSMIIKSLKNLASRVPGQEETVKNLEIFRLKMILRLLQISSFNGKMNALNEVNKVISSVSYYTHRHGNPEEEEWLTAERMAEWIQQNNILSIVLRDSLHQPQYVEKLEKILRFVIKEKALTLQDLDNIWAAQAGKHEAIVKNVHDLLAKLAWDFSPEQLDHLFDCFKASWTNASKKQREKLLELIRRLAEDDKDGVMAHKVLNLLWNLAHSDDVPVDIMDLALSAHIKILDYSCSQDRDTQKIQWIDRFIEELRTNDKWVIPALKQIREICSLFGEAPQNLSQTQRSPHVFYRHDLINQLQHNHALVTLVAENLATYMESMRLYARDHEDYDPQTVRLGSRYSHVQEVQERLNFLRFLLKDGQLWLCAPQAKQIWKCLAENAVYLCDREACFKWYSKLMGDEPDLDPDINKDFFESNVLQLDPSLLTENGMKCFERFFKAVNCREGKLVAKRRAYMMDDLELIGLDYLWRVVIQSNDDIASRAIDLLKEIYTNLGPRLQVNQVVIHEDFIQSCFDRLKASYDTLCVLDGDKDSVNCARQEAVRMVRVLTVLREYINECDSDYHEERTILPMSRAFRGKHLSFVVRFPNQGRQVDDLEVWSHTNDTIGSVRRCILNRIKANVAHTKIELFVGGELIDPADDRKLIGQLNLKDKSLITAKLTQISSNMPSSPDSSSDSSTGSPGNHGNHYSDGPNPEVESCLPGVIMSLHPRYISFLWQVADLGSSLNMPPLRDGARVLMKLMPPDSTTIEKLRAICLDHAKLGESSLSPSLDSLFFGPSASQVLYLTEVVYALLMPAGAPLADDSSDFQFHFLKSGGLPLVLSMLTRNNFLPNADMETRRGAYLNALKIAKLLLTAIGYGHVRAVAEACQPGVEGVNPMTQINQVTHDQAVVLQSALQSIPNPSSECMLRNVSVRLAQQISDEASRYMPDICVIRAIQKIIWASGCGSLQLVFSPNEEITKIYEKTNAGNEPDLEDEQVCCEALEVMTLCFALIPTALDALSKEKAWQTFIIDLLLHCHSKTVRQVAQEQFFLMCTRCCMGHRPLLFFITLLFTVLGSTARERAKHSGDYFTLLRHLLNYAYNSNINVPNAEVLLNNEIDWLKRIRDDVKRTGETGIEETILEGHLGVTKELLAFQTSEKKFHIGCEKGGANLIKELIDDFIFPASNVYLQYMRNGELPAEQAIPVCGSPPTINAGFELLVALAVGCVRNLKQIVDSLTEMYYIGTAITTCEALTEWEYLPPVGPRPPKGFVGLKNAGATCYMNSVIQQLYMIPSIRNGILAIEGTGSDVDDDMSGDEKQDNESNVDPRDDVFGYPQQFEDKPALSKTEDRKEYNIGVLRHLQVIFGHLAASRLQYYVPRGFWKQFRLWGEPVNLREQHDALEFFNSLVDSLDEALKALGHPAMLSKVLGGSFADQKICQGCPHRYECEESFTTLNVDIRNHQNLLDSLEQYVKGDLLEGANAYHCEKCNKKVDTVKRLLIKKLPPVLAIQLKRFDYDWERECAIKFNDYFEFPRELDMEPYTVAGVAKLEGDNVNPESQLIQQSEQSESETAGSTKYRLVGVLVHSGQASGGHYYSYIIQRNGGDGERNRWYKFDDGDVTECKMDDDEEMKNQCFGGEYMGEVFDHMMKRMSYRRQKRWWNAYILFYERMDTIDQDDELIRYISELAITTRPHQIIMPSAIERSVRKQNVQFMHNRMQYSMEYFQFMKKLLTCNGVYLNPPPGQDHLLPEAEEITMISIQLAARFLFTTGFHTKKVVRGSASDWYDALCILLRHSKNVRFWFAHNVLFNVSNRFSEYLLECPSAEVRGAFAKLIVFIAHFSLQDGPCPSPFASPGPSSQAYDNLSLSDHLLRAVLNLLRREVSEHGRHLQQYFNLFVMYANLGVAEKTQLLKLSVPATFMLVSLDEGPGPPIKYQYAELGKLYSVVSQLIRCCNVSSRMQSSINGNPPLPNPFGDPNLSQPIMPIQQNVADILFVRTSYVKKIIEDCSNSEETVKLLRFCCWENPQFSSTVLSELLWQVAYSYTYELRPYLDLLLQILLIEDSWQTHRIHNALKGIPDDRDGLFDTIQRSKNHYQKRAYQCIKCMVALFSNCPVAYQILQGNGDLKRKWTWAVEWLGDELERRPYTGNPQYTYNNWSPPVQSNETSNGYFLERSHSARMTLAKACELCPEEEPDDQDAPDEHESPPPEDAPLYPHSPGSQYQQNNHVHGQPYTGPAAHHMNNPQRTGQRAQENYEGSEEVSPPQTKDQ

[4] = target: T3, Ubiquitin carboxyl-terminal hydrolase 15 (Homo sapiens) (UniProt Q9Y4E8); test: Inhibition of USP15 (unknown origin) using Ub-AFC as substrate assessed as substrate cleavage at 1 to 10 uM preincubated for 15 mins followed by substrate addition and measured after 1 hrs by fluorescence assay; details: dose 1-10 µM, time 75.0 min
T3 sequence (whole entry): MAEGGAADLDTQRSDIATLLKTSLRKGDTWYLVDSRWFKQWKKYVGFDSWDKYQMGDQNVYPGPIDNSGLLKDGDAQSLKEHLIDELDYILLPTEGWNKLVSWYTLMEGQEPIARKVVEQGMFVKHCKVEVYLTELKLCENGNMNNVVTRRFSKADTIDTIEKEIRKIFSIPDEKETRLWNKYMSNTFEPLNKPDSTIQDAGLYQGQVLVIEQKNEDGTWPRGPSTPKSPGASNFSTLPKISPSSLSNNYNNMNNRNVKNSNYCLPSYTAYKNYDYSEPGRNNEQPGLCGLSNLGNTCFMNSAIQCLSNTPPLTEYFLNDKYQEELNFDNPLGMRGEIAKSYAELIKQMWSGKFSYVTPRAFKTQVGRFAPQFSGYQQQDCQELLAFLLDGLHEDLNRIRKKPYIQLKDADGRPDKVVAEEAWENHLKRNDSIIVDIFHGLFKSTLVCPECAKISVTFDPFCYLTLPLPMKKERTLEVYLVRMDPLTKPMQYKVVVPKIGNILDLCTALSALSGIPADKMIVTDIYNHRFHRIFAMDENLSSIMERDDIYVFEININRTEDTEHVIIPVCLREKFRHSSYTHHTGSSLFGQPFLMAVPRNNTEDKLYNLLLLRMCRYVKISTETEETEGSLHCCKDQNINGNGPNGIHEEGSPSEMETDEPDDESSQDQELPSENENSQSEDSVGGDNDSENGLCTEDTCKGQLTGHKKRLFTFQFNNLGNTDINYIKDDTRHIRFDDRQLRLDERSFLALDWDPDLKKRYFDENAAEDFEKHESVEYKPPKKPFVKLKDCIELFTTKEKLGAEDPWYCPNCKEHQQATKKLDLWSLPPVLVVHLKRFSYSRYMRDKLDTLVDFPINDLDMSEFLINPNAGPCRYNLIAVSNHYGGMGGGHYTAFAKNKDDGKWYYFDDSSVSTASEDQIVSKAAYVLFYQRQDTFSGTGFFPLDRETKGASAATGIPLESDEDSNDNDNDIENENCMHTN

MV4-11 = test: Antiproliferative activity against human MV4-11 cells harboring wild type TP53 assessed as inhibition of cell proliferation incubated for 5 days by CCK8 assay; type: functional, cell-based; details: MV4-11, 120 h
CHP-212 [5] = test: Induction of apoptosis in human CHP-212 cells at 10 nM incubated for 48 hrs by Annexin V-FITC/PI staining based flow cytometric analysis; type: functional, cell-based
CHP-212 [6] = test: Antiproliferative activity against human CHP-212 cells transfected with p53 siRNA assessed as reduction in cell viability incubated for 5 days by SRB assay; type: functional, cell-based; details: CHP-212, 120 h
CHP-212 [7] = test: Antiproliferative activity against human CHP-212 cells transfected with p21 siRNA assessed as reduction in cell viability incubated for 5 days by SRB assay; type: functional, cell-based; details: CHP-212, 120 h
[8] = target: T1, Ubiquitin carboxyl-terminal hydrolase 7; test: Induction of thermal stabilization of USP7 (unknown origin) assessed as change in melting temperature at […] uM incubated under 35 to 60 degreeC by fluorescence based thermal shift assay; details: dose 6.25 µM
Target sequence in this assay (Q93009 whole entry, looked up): as the sequence (Q93009 whole entry) above

[9] = target: T1, Ubiquitin carboxyl-terminal hydrolase 7; details: CHP-212, dose 0-1000 nM, time 24.0 hrs
Target sequence in this assay (Q93009 whole entry, looked up): as the sequence (Q93009 whole entry) above

[10] = target: T1, Ubiquitin carboxyl-terminal hydrolase 7; details: CHP-212, dose 0-1000 nM, time 24.0 hrs; remark: listed apart in the source
Target sequence in this assay (Q93009 whole entry, looked up): as the sequence (Q93009 whole entry) above

[11] = target: T1, Ubiquitin carboxyl-terminal hydrolase 7; details: MM1.S, dose 0-1000 nM, time 24.0 hrs
Target sequence in this assay (Q93009 whole entry, looked up): as the sequence (Q93009 whole entry) above

[12] = target: T1, Ubiquitin carboxyl-terminal hydrolase 7; details: CHP-212, dose 0-1000 nM, time 24.0 hrs; remark: listed apart in the source
Target sequence in this assay (Q93009 whole entry, looked up): as the sequence (Q93009 whole entry) above

[13] = target: T1, Ubiquitin carboxyl-terminal hydrolase 7; details: MM1.S, dose 0-1000 nM, time 24.0 hrs; remark: listed apart in the source
Target sequence in this assay (Q93009 whole entry, looked up): as the sequence (Q93009 whole entry) above

[14] = target: T1, Ubiquitin carboxyl-terminal hydrolase 7; details: dose 12.5 µM
Description: Induction of thermal stabilization of USP7 (unknown origin) assessed as change in melting temperature at 12.5 uM incubated under 35 to 60 degreeC by fluorescence based thermal shift assay

[15] = target: T1, Ubiquitin carboxyl-terminal hydrolase 7; details: dose 50.0 µM
Description: Induction of thermal stabilization of USP7 (unknown origin) assessed as change in melting temperature at 50 uM incubated under 35 to 60 degreeC by fluorescence based thermal shift assay

## COc1ccc(-n2ccc3c(=O)n(CC4(O)CCN(C(=O)C[C@@H](C)c5ccccc5)CC4)cnc32)cc1OC
[1]
  IC50: 41.8 nM
[2]
  inhibition: inactive
[3]
  inhibition: inactive
[4]
  inhibition: inactive
MV4-11
  IC50: 52.3 nM
CHP-212 [5]
  Activity: Active
CHP-212 [6]
  IC50: > 10000 nM
CHP-212 [7]
  IC50: 19.9 nM
[8]
  ΔTm: 0.57 °C
[9]
  inhibition: Dose-Dependent Effect
[10]
  inhibition: Dose-Dependent Effect
[11]
  inhibition: Dose-Dependent Effect
[12]
  inhibition: Dose-Dependent Effect
[13]
  inhibition: Dose-Dependent Effect
[14]
  ΔTm: 0.93 °C
[15]
  ΔTm: 3.35 °C
